Usually EC50 stands for the concentration giving half of the maximal effect.

Holding throughout (format): cell-based
For assay [1], the target named is T1, ΔF508-CFTR (Homo sapiens, UniProt P13569, DEL508-508).
T1 construct: host or cells: CFBE41o-, doxycycline-inducible
The experiment in a line: CFTR cell surface levels using HRP-tagged ΔF508-CFTR expressing CFBE cells, in the presence of a co-corrector. The settings on record: HRP-tagged ΔF508-CFTR CFBE cells, in the presence of 3 μM co-corrector; for EC50: read-out: EC50. An outline of the steps: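 Chemiluminescent read-out of surface HRP (15 min, dark) after PBS washes. Activity is normalized as 100×(sample−DMSO)/(3 μM co-corrector alone−DMSO).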

In a further assay the target is T2, CFTR ΔF508 (Homo sapiens, UniProt P13569, DEL508-508).
T2 construct: bronchial epithelial cells isolated from CF patients homozygous for the CFTR ΔF508 mutation; McGill University; Asterand; University of North Carolina hAEC-CF; host or cells: primary human bronchial epithelial cells from CF patients homozygous for ΔF508, differentiated at air-liquid interface
T2 sequence (P13569 with tags, fused parts or gaps DEL508-508): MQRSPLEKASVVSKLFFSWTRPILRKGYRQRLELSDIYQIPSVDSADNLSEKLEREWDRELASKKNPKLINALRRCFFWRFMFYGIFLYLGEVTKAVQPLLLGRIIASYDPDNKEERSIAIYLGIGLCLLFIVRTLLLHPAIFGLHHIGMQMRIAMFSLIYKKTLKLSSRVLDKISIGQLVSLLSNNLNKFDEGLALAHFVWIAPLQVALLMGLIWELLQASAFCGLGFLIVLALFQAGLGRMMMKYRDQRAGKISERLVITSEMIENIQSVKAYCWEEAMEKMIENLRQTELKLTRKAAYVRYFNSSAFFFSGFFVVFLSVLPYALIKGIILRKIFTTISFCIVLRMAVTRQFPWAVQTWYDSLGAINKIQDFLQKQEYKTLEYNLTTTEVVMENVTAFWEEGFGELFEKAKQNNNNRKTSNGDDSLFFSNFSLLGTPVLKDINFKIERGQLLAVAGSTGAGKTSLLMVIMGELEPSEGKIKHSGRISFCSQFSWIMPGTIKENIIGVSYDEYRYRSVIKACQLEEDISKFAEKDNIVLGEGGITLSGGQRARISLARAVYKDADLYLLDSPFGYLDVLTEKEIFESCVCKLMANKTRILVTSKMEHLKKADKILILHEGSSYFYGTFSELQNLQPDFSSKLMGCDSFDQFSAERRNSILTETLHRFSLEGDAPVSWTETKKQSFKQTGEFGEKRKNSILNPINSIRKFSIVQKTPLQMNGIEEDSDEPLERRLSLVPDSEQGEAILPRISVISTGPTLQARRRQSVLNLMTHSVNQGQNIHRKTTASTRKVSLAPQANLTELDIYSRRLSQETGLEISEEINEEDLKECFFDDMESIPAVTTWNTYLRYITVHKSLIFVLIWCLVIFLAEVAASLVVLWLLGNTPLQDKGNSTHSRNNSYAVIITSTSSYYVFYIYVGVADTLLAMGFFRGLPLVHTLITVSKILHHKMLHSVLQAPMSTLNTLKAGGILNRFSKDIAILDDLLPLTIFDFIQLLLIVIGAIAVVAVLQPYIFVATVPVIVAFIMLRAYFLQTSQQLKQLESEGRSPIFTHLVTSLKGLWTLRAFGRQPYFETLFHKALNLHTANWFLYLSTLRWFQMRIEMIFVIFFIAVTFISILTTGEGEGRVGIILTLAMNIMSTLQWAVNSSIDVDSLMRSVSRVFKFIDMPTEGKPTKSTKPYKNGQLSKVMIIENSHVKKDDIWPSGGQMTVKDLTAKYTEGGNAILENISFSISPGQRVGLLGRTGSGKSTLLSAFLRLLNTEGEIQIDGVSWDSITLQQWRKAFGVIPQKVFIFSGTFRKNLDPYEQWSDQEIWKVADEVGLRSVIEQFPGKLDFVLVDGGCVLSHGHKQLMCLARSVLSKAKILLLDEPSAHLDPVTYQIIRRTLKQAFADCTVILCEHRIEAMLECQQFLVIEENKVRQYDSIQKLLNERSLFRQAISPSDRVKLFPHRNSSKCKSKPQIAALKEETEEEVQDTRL
The experiment in a line: Chronic TECC assay, primary bronchial epithelial cells of CF patients homozygous for CFTR ΔF508 (corrector, co-corrector and potentiator). The settings on record: chronic TECC, AUC = full area under the curve upon forskolin stimulation; for % Activity at 1 μM (AUC**): test compound at 1 μM; for EC50: read-out: EC50 (nM) (AUC**); for % Activity at 3 μM (AUC**): test compound at 3 μM. An outline of the steps:
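Primary bronchial epithelial cells from ΔF508-homozygous CF patients on collagen IV-coated Transwells were chronically treated with test compound plus corrector and potentiator, which were re-added before recording. Ieq was derived from PD and Rt in NaCl-Ringer, pH 7.4, at 37° C, with apical amiloride and bilateral forskolin, recorded every 2 min over 20 min. Ieq increase was normalized to controls, and EC50 was taken from per-well concentrations.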

The target of assay [2] is T1, ΔF508-CFTR. The experiment in a line: CFTR cell surface levels using HRP-tagged ΔF508-CFTR expressing CFBE cells, intrinsic corrector capacity. Details: % Activation: concentration or dose not given beside the values. The following applies: HRP-tagged ΔF508-CFTR expressing CFBE41o- cells, compound alone (intrinsic corrector capacity), 20 hours at 33° C.; for EC50: read-out: EC50. The method, boiled down: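 Surface ΔF508-CFTR was measured as HRP chemiluminescence from an extracellular-loop-4 tag, expressed as percent activity between DMSO and a […] corrector control.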

T1 sequence (P13569 with tags, fused parts or gaps DEL508-508): as above

As to `CN(C)S(=O)(=O)NC(=O)c1cc(N2CCC(N3CCOC(C#N)C3)CC2)c2c(C3CCC3)nn(-c3ccc(F)cc3)c2n1` (stereo not shown) [Compound 527, 4-[4-(2-cyanomorpholin-4-yl)piperidin-1-yl]-3-cyclobutyl-N-(dimethylsulfamoyl)-1-(4-fluorophenyl)-1H-pyrazolo[3,4-b]pyridine-6-carboxamide], on ΔF508-CFTR [1], the “% Activation” value was found to be 500% and the EC50 is 0.0538 µM. Also, at CFTR ΔF508, the “% Activity at 1 μM (AUC**)” value is reported as 370.693%. Further, on ΔF508-CFTR [2], the “% Activation” value was 295.95% and the EC50 worked out at 0.0791 µM.
Regarding `CC(C)Oc1cc(-n2nc(C3CCC3)c3c(N4CCC(N5CCOCC5)CC4)cc(C(=O)NS(=O)(=O)N(C)C)nc32)ccn1` [Compound 529, 3-cyclobutyl-N-(dimethylsulfamoyl)-4-[4-(morpholin-4-yl)piperidin-1-yl]-1-{2-[(propan-2-yl)oxy]pyridin-4-yl}-1H-pyrazolo[3,4-b]pyridine-6-carboxamide], the “% Activation” value amounted to 444.13% on ΔF508-CFTR [1] and 278.55% at ΔF508-CFTR [2]. For the same compound, the figures for the EC50 at ΔF508-CFTR [1], at CFTR ΔF508 and at ΔF508-CFTR [2] were 0.0226 µM, 19.1 nM and 0.0606 µM, respectively. In addition, at CFTR ΔF508, the “% Activity at 1 μM (AUC**)” value worked out at 520%.
As to `CC(C)Oc1cc(-n2nc(C3CCC3)c3c(N4CCC(N5CCOCC5)CC4)cc(C(=O)NS(C)(=O)=O)nc32)ccn1` [Compound 530, 3-cyclobutyl-N-(methanesulfonyl)-4-[4-(morpholin-4-yl)piperidin-1-yl]-1-{2-[(propan-2-yl)oxy]pyridin-4-yl}-1H-pyrazolo[3,4-b]pyridine-6-carboxamide], at ΔF508-CFTR [1], the “% Activation” value is listed as 464.6% and the EC50 was 0.023 µM. In addition, the “% Activity at 1 μM (AUC**)” value on CFTR ΔF508 came out at 326.6667%. For the same compound, on ΔF508-CFTR [2], the “% Activation” value came out at 323.1% and the EC50 is 0.0544 µM.
For `Cc1cc(N2CCN(c3cc(C(=O)NS(=O)(=O)N(C)C)nc4c3c(C3CCC3)nn4C3CCCCC3)CC2)ccn1` [Compound 535, 3-cyclobutyl-1-cyclohexyl-N-(dimethylsulfamoyl)-4-[4-(2-methylpyridin-4-yl)piperazin-1-yl]-1H-pyrazolo[3,4-b]pyridine-6-carboxamide], in that order: 670.35%, 1.25 µM, 335.0294%, 385.8% and 0.389 µM.
In the case of `O=C(NS(=O)(=O)N1CCC(F)C1)c1cc(N2CCC(N3CCOCC3)CC2)c2c(C3CCC3)nn(-c3ccc(F)cc3)c2n1` (stereo not shown) [Compound 537, 3-cyclobutyl-1-(4-fluorophenyl)-N-(3-fluoropyrrolidine-1-sulfonyl)-4-[4-(morpholin-4-yl)piperidin-1-yl]-1H-pyrazolo[3,4-b]pyridine-6-carboxamide], at ΔF508-CFTR [1], the “% Activation” value came to 417.1% and the EC50 is 0.0508 µM. The “% Activity at 3 μM (AUC**)” value on CFTR ΔF508 is listed as 261.5724%. On ΔF508-CFTR [2], the “% Activation” value was 214.5% and the EC50 was found to be 0.112 µM.
Take `CN(C)S(=O)(=O)NC(=O)c1cc(N2CCC(N3CCC(F)C3)CC2)c2c(C3CCC3)nn(-c3ccc(F)cc3)c2n1` (stereo not shown) [Compound 541, 3-cyclobutyl-N-(dimethylsulfamoyl)-1-(4-fluorophenyl)-4-[4-(3-fluoropyrrolidin-1-yl)piperidin-1-yl]-1H-pyrazolo[3,4-b]pyridine-6-carboxamide]: at ΔF508-CFTR [1], the “% Activation” value is reported as 457.2% and the EC50 was 0.115 µM. Besides, on CFTR ΔF508, the “% Activity at 1 μM (AUC**)” value stood at 320%. At ΔF508-CFTR [2], the “% Activation” value turned out to be 231.7% and the EC50 came out at 0.444 µM.
Take `CC(C)Oc1nn(C2CCCCC2)c2nc(C(=O)NS(=O)(=O)N(C)C)cc(-c3ccc(C(=O)N4CCC(N(C)C)CC4)cc3)c12` [Compound 546, 1-cyclohexyl-4-{4-[4-(dimethylamino)piperidine-1-carbonyl]phenyl}-N-(dimethylsulfamoyl)-3-[(propan-2-yl)oxy]-1H-pyrazolo[3,4-b]pyridine-6-carboxamide]: on ΔF508-CFTR [1], the “% Activation” value came out at 335.3% and the EC50 was 0.182 µM. Moreover, the “% Activity at 3 μM (AUC**)” value at CFTR ΔF508 came to 282.0317%. Besides, on ΔF508-CFTR [2], the “% Activation” value stood at 138.05% and the EC50 worked out at 0.325 µM.
As to `CN(C)S(=O)(=O)NC(=O)c1cc(N2CCC(N3CCN(C4CC4)CC3)CC2)c2c(C3CCC3)nn(-c3ccccc3)c2n1` [Compound 549, 3-cyclobutyl-4-[4-(4-cyclopropylpiperazin-1-yl)piperidin-1-yl]-N-(dimethylsulfamoyl)-1-phenyl-1H-pyrazolo[3,4-b]pyridine-6-carboxamide], the “% Activation” value is listed as 476.35% at ΔF508-CFTR [1] and 276.9% on ΔF508-CFTR [2]. Further, the results for the EC50 at ΔF508-CFTR [1], at CFTR ΔF508 and on ΔF508-CFTR [2] were 0.18 µM, 243 nM and 0.233 µM, respectively. Moreover, on CFTR ΔF508, the “% Activity at 1 μM (AUC**)” value came to 373.3333%.
On to `CN1CCN(c2ccc(-c3cc(C(=O)NS(=O)(=O)N(C)C)nc4c3c(C3CCC3)nn4C3CCCCC3)cn2)CC1` [Compound 551, 3-cyclobutyl-1-cyclohexyl-N-(dimethylsulfamoyl)-4-[6-(4-methylpiperazin-1-yl)pyridin-3-yl]-1H-pyrazolo[3,4-b]pyridine-6-carboxamide], for which the “% Activation” value at ΔF508-CFTR [1] is given as 403.1%; on ΔF508-CFTR [2], 197.8%. Besides, the EC50 worked out at 0.382 µM on ΔF508-CFTR [1] and 0.763 µM on ΔF508-CFTR [2]. Moreover, the “% Activity at 1 μM (AUC**)” value on CFTR ΔF508 is 239.0643%.
Take `O=C(NS(=O)(=O)N1CCOCC1)c1cc(N2CCC(N3CCN(C4CC4)CC3)CC2)c2c(C3CCC3)nn(-c3ccccc3)c2n1` [Compound 555, 3-cyclobutyl-4-[4-(4-cyclopropylpiperazin-1-yl)piperidin-1-yl]-N-(morpholine-4-sulfonyl)-1-phenyl-1H-pyrazolo[3,4-b]pyridine-6-carboxamide]: on ΔF508-CFTR [1], the “% Activation” value came to 432.55% and the EC50 was found to be 0.104 µM. Further, on CFTR ΔF508, the EC50 was determined as 107 nM and the “% Activity at 1 μM (AUC**)” value was found to be 296.6667%. Further, on ΔF508-CFTR [2], the “% Activation” value turned out to be 235.5% and the EC50 is 0.359 µM.
With `CNS(=O)(=O)NC(=O)c1cc(N2CCC(N3CCN(C4CC4)CC3)CC2)c2c(C3CCC3)nn(-c3ccccc3)c2n1` [Compound 558, 3-cyclobutyl-4-[4-(4-cyclopropylpiperazin-1-yl)piperidin-1-yl]-N-(methylsulfamoyl)-1-phenyl-1H-pyrazolo[3,4-b]pyridine-6-carboxamide], on ΔF508-CFTR [1], the “% Activation” value is on record as 571.35% and the EC50 worked out at 0.106 µM. In addition, at CFTR ΔF508, the EC50 was 4.74 nM and the “% Activity at 1 μM (AUC**)” value worked out at 221.9818%. Further, at ΔF508-CFTR [2], the “% Activation” value was 399.1% and the EC50 is 0.532 µM.
Take `CN(C)S(=O)(=O)NC(=O)c1cc(N2CCC(N3CCC(C#N)C3)CC2)c2c(C3CCC3)nn(-c3ccc(F)cc3)c2n1` (stereo not shown) [Compound 561, 4-[4-(3-cyanopyrrolidin-1-yl)piperidin-1-yl]-3-cyclobutyl-N-(dimethylsulfamoyl)-1-(4-fluorophenyl)-1H-pyrazolo[3,4-b]pyridine-6-carboxamide]: on ΔF508-CFTR [1], the “% Activation” value is recorded as 509.4% and the EC50 stood at 0.043 µM. For the same compound, the “% Activity at 1 μM (AUC**)” value on CFTR ΔF508 is on record as 620%. For the same compound, at ΔF508-CFTR [2], the “% Activation” value is recorded as 311.6% and the EC50 came out at 0.107 µM.
As for `CN(C)S(=O)(=O)NC(=O)c1cc(N2CCC(N3CCCC(C#N)C3)CC2)c2c(C3CCC3)nn(-c3ccc(F)cc3)c2n1` (stereo not shown) [Compound 562, 4-(3-cyano[1,4'-bipiperidin]-1'-yl)-3-cyclobutyl-N-(dimethylsulfamoyl)-1-(4-fluorophenyl)-1H-pyrazolo[3,4-b]pyridine-6-carboxamide], on ΔF508-CFTR [1], the “% Activation” value was found to be 589.55% and the EC50 amounted to 0.0776 µM. Also, at CFTR ΔF508, the “% Activity at 1 μM (AUC**)” value stood at 289.8854%. Also, on ΔF508-CFTR [2], the “% Activation” value is recorded as 341.3% and the EC50 turned out to be 0.0705 µM.
Regarding `COC1CN(C2CCN(c3cc(C(=O)NS(=O)(=O)N(C)C)nc4c3c(C3CCC3)nn4-c3ccc(F)cc3)CC2)C1` [Compound 570, 3-cyclobutyl-N-(dimethylsulfamoyl)-1-(4-fluorophenyl)-4-[4-(3-methoxyazetidin-1-yl)piperidin-1-yl]-1H-pyrazolo[3,4-b]pyridine-6-carboxamide], at ΔF508-CFTR [1], the “% Activation” value is recorded as 412.9% and the EC50 was 0.208 µM. In addition, the “% Activity at 3 μM (AUC**)” value on CFTR ΔF508 was found to be 377.5594%. Also, at ΔF508-CFTR [2], the “% Activation” value is reported as 235.8% and the EC50 is 0.496 µM.
Regarding `CN(C)S(=O)(=O)NC(=O)c1cc(N2CCC(N3CCOCC3)CC2)c2c(C3CCC3)nn(-c3ccnc(OC(F)F)c3)c2n1` [Compound 575, 3-cyclobutyl-1-[2-(difluoromethoxy)pyridin-4-yl]-N-(dimethylsulfamoyl)-4-[4-(morpholin-4-yl)piperidin-1-yl]-1H-pyrazolo[3,4-b]pyridine-6-carboxamide], at ΔF508-CFTR [1], the “% Activation” value stood at 361.3% and the EC50 was 0.0878 µM. The “% Activity at 1 μM (AUC**)” value on CFTR ΔF508 is 246.6667%. On ΔF508-CFTR [2], the “% Activation” value is on record as 202.65% and the EC50 was determined as 0.147 µM.

The record behind these values is US10259810B2, “N-sulfonylated pyrazolo[3,4-b]pyridin-6-carboxamides and method of use” (AbbVie S.à.r.l., priority 2015, dated 2019).
